Source: US11491120B2, “Pharmacological prophylactics against stress-induced affective disorders in females” (The Trustees of Columbia University in the City of New York, priority 2017, dated 2022)
Entries after “also recorded” stand apart in the source; their conditions may differ.

Test system: female 129S6/SvEv mice
Assay: Forced swim test (FST), immobility time, after stress
[1] = 0.025 mg/kg, 1 week prophylactic drug
[2] = 0.025 mg/kg, 1 week prophylactic drug, learned helplessness stress
[3] = 0.025 mg/kg, 3 day prophylactic drug
[4] = 0.075 mg/kg, 1 week prophylactic drug
[5] = 0.1 mg/kg, 1 week prophylactic drug
[6] = 0.3 mg/kg, 1 week prophylactic drug
[7] = 2.5 mg/kg, 1 week prophylactic drug
[8] = 10 mg/kg, 1 week prophylactic drug
[9] = Forced Swim Test Day 1, Dunnett test Sal vs. drug (0.025), 1 week prophylactic drug
[10] = Forced Swim Test Day 1, Dunnett test Sal vs. drug (0.075), 1 week prophylactic drug
[11] = Forced Swim Test Day 1, Dunnett test Sal vs. drug (0.1), 1 week prophylactic drug
[12] = Forced Swim Test Day 1, Dunnett test Sal vs. drug (0.3), 1 week prophylactic drug
[13] = Forced Swim Test Day 1, Dunnett test Sal vs. drug (2.5), 1 week prophylactic drug

N[C@@]1(c2ccccc2Cl)CCC[C@@H](O)C1=O [(2R,6R)-HNK, (2R,6R)-hydroxynorketamine]
* (significance), Sal vs. drug, Dunnett test: Immobility Time (min 1-6), Forced Swim Test Day 2 [1]: *** (*** p<0.0001) | * (significance), Sal vs. drug, Dunnett test: Immobility Time (min 4), Forced Swim Test Day 2 [1]: * (* p<0.05) | * (significance), Sal vs. drug, Dunnett test: Immobility Time (min 5), Forced Swim Test Day 2 [1]: * (* p<0.05) | * (significance), Sal vs. drug, Dunnett test: Immobility Time Average (min 3-6), Forced Swim Test Day 2 [1]: * (* p<0.05) | p, Sal vs. drug, Dunnett test: Immobility Time (min 1), Forced Swim Test Day 2 [1]: 0.0833 | p, Sal vs. drug, Dunnett test: Immobility Time (min 1-6), Forced Swim Test Day 2 [1]: 0.0001 | p, Sal vs. drug, Dunnett test: Immobility Time (min 2), Forced Swim Test Day 2 [1]: 0.5867 | p, Sal vs. drug, Dunnett test: Immobility Time (min 4), Forced Swim Test Day 2 [1]: 0.0383 | p, Sal vs. drug, Dunnett test: Immobility Time (min 5), Forced Swim Test Day 2 [1]: 0.0346 | p, Sal vs. drug, Dunnett test: Immobility Time (min 6), Forced Swim Test Day 2 [1]: 0.2356 | p, Sal vs. drug, Dunnett test: Immobility Time Average (min 3-6), Forced Swim Test Day 2 [1]: 0.0229 | * (significance), Sal vs. drug, Fisher's PLSD: Immobility Time Average (min 3-6), Forced Swim Test Day 2 [2]: *** (*** p<0.0001) | P, Sal vs. drug, Fisher's PLSD: Immobility Time Average (min 3-6), Forced Swim Test Day 2 [2]: <0.0001 | p, Sal vs. drug, t-test: Immobility Time Average (min 3-6), Forced Swim Test Day 2 (0.025 mg/kg, 24 hour prophylactic drug): 0.1367 | Immobility on FST Day 2 vs saline (0.025 mg/kg, 24 hours before CFC, female mice): not prophylactically effective when administered 24 h before a stressor; also recorded: did not alter immobility in the FST | * (significance), Sal vs. drug, Fisher's PLSD: Immobility Time (min 1-6), Forced Swim Test Day 2 [3]: *** (*** p<0.0001) | * (significance), Sal vs. drug, Fisher's PLSD: Immobility Time Average (min 3-6), Forced Swim Test Day 2 [3]: ** (** p<0.01) | p, Sal vs. drug, Fisher's PLSD: Immobility Time (min 1-6), Forced Swim Test Day 2 [3]: <0.0001 | p, Sal vs. drug, Fisher's PLSD: Immobility Time Average (min 3-6), Forced Swim Test Day 2 [3]: 0.0046 | p, Sal vs. drug, Dunnett test: Immobility Time (min 1), Forced Swim Test Day 2 [4]: 0.4238 | p, Sal vs. drug, Dunnett test: Immobility Time (min 1-6), Forced Swim Test Day 2 [4]: 0.5537 | p, Sal vs. drug, Dunnett test: Immobility Time (min 2), Forced Swim Test Day 2 [4]: 0.9312 | p, Sal vs. drug, Dunnett test: Immobility Time (min 4), Forced Swim Test Day 2 [4]: 0.9993 | p, Sal vs. drug, Dunnett test: Immobility Time (min 5), Forced Swim Test Day 2 [4]: >0.9999 | p, Sal vs. drug, Dunnett test: Immobility Time (min 6), Forced Swim Test Day 2 [4]: 0.9760 | p, Sal vs. drug, Dunnett test: Immobility Time Average (min 3-6), Forced Swim Test Day 2 [4]: 0.8615 | p, Sal vs. drug, Dunnett test: Immobility Time (min 1), Forced Swim Test Day 2 [5]: 0.9995 | p, Sal vs. drug, Dunnett test: Immobility Time (min 1-6), Forced Swim Test Day 2 [5]: 0.9871 | p, Sal vs. drug, Dunnett test: Immobility Time (min 2), Forced Swim Test Day 2 [5]: 0.2508 | p, Sal vs. drug, Dunnett test: Immobility Time (min 4), Forced Swim Test Day 2 [5]: 0.9994 | p, Sal vs. drug, Dunnett test: Immobility Time (min 5), Forced Swim Test Day 2 [5]: 0.8037 | p, Sal vs. drug, Dunnett test: Immobility Time (min 6), Forced Swim Test Day 2 [5]: 0.8172 | p, Sal vs. drug, Dunnett test: Immobility Time Average (min 3-6), Forced Swim Test Day 2 [5]: 0.9994 | p, Sal vs. drug, Dunnett test: Immobility Time (min 1), Forced Swim Test Day 2 [6]: 0.9998 | p, Sal vs. drug, Dunnett test: Immobility Time (min 1-6), Forced Swim Test Day 2 [6]: 0.9996 | p, Sal vs. drug, Dunnett test: Immobility Time (min 2), Forced Swim Test Day 2 [6]: 0.9999 | p, Sal vs. drug, Dunnett test: Immobility Time (min 4), Forced Swim Test Day 2 [6]: 0.9883 | p, Sal vs. drug, Dunnett test: Immobility Time (min 5), Forced Swim Test Day 2 [6]: 0.9991 | p, Sal vs. drug, Dunnett test: Immobility Time (min 6), Forced Swim Test Day 2 [6]: 0.9991 | p, Sal vs. drug, Dunnett test: Immobility Time Average (min 3-6), Forced Swim Test Day 2 [6]: 0.9994 | p, Sal vs. drug, Dunnett test: Immobility Time (min 1), Forced Swim Test Day 2 [7]: 0.4807 | p, Sal vs. drug, Dunnett test: Immobility Time (min 1-6), Forced Swim Test Day 2 [7]: 0.6589 | p, Sal vs. drug, Dunnett test: Immobility Time (min 2), Forced Swim Test Day 2 [7]: 0.9193 | p, Sal vs. drug, Dunnett test: Immobility Time (min 4), Forced Swim Test Day 2 [7]: 0.9991 | p, Sal vs. drug, Dunnett test: Immobility Time (min 5), Forced Swim Test Day 2 [7]: >0.9999 | p, Sal vs. drug, Dunnett test: Immobility Time (min 6), Forced Swim Test Day 2 [7]: 0.9995 | p, Sal vs. drug, Dunnett test: Immobility Time Average (min 3-6), Forced Swim Test Day 2 [7]: 0.9507 | p, Sal vs. drug, Dunnett test: Immobility Time (min 1), Forced Swim Test Day 2 [8]: 0.9997 | p, Sal vs. drug, Dunnett test: Immobility Time (min 1-6), Forced Swim Test Day 2 [8]: 0.9950 | p, Sal vs. drug, Dunnett test: Immobility Time (min 2), Forced Swim Test Day 2 [8]: 0.9993 | p, Sal vs. drug, Dunnett test: Immobility Time (min 4), Forced Swim Test Day 2 [8]: 0.9955 | p, Sal vs. drug, Dunnett test: Immobility Time (min 5), Forced Swim Test Day 2 [8]: 0.9991 | p, Sal vs. drug, Dunnett test: Immobility Time (min 6), Forced Swim Test Day 2 [8]: 0.9999 | p, Sal vs. drug, Dunnett test: Immobility Time Average (min 3-6), Forced Swim Test Day 2 [8]: 0.9997 | * (significance), Immobility Time (min 1-6) [9]: ** (** p<0.01) | p, Immobility Time (min 1) [9]: 0.9996 | p, Immobility Time (min 1-6) [9]: 0.0090 | p, Immobility Time (min 3) [9]: 0.9637 | p, Immobility Time (min 4) [9]: 0.8106 | p, Immobility Time (min 5) [9]: 0.8892 | p, Immobility Time (min 6) [9]: 0.6406 | p, Immobility Time Average (min 3-6) [9]: 0.7004 | * (significance), Immobility Time (min 1) [10]: ** (** p<0.01) | p, Immobility Time (min 1) [10]: 0.0017 | p, Immobility Time (min 1-6) [10]: 0.2188 | p, Immobility Time (min 3) [10]: 0.9250 | p, Immobility Time (min 4) [10]: 0.9750 | p, Immobility Time (min 5) [10]: 0.8877 | p, Immobility Time (min 6) [10]: 0.9994 | p, Immobility Time Average (min 3-6) [10]: 0.9526 | p, Immobility Time (min 1) [11]: 0.9996 | p, Immobility Time (min 1-6) [11]: 0.0673 | p, Immobility Time (min 3) [11]: 0.4888 | p, Immobility Time (min 4) [11]: 0.3257 | p, Immobility Time (min 5) [11]: 0.2856 | p, Immobility Time (min 6) [11]: 0.9218 | p, Immobility Time Average (min 3-6) [11]: 0.3240 | p, Immobility Time (min 1) [12]: 0.0586 | p, Immobility Time (min 1-6) [12]: >0.9999 | p, Immobility Time (min 3) [12]: >0.9999 | p, Immobility Time (min 4) [12]: 0.7424 | p, Immobility Time (min 5) [12]: 0.3614 | p, Immobility Time (min 6) [12]: 0.9996 | p, Immobility Time Average (min 3-6) [12]: 0.9455 | * (significance), Immobility Time (min 1) [13]: ** (** p<0.01) | p, Immobility Time (min 1) [13]: 0.0026 | p, Immobility Time (min 1-6) [13]: 0.7127
